Test results from ChEMBL document CHEMBL2331297, “Potent and selective tariquidar bioisosters as potential PET radiotracers for imaging P-gp” (Bioorg Med Chem Lett, 2013).

What was measured:
[1] = target: Multidrug resistance-associated protein 1 (Homo sapiens, UniProt P33527); assay: Activity at MRP1 (unknown origin) expressed in MDCK cells using calcein AM as substrate incubated for 30 mins prior to substrate addition measured after 30 mins by fluorometric analysis; assay type: cell-based
[2] = target: ATP-dependent translocase ABCB1 (Homo sapiens, UniProt P08183); assay: Activity at MDR1 (unknown origin) expressed in MDCK cells using calcein AM as substrate incubated for 30 mins prior to substrate addition measured after 30 mins by fluorometric analysis; assay type: cell-based
MDR1 (ABCB1, P-gp) [3] = target: T1, MDR1 (ABCB1, P-gp) (Homo sapiens, UniProt P08183); assay: Ratio of MC90 EC50 to compound EC50 for MDR1 (unknown origin) by fluorometric analysis; conditions: not told, read-out: Ratio EC50
MDR1 (ABCB1, P-gp) [4] = target: T1, MDR1 (ABCB1, P-gp); assay: Activity at MDR1 (unknown origin) expressed in MDCK cells assessed as ATPase activity at 50 uM after 2 hrs by ATPlite assay; assay type: cell-based; conditions: MDCK cells expressing MDR1, read-out: Activity
[5] = Efflux ratio of apparent permeability from basolateral to apical to apical to basolateral side of human Caco2 cells after 120 mins; assay type: ADME, cell-based; conditions: Caco-2
[6] = target: T2, Broad substrate specificity ATP-binding cassette transporter ABCG2 (Homo sapiens, UniProt Q9UNQ0); assay: Activity at BCRP (unknown origin) expressed in MDCK cells using […] as substrate incubated for 30 mins prior to substrate addition measured after 30 mins by fluorometric analysis; assay type: cell-based
T2 sequence (Q9UNQ0 whole entry): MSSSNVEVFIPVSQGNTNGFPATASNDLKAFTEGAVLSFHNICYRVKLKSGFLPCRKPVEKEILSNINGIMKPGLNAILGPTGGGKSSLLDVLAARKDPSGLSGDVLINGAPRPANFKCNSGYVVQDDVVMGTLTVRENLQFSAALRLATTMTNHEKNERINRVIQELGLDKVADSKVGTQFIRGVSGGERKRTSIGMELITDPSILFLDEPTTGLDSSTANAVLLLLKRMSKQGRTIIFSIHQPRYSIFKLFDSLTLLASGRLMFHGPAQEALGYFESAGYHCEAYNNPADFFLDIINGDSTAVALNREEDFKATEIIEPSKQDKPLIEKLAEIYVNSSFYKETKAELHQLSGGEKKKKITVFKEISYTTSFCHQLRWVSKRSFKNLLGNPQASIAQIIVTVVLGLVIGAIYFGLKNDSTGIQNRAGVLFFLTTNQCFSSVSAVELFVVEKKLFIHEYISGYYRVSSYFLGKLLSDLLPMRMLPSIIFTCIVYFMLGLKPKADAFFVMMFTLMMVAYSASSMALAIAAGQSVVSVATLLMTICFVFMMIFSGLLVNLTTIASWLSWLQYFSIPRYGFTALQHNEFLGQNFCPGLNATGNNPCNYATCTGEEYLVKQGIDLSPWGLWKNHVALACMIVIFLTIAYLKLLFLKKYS

T1 sequence (P08183 whole entry): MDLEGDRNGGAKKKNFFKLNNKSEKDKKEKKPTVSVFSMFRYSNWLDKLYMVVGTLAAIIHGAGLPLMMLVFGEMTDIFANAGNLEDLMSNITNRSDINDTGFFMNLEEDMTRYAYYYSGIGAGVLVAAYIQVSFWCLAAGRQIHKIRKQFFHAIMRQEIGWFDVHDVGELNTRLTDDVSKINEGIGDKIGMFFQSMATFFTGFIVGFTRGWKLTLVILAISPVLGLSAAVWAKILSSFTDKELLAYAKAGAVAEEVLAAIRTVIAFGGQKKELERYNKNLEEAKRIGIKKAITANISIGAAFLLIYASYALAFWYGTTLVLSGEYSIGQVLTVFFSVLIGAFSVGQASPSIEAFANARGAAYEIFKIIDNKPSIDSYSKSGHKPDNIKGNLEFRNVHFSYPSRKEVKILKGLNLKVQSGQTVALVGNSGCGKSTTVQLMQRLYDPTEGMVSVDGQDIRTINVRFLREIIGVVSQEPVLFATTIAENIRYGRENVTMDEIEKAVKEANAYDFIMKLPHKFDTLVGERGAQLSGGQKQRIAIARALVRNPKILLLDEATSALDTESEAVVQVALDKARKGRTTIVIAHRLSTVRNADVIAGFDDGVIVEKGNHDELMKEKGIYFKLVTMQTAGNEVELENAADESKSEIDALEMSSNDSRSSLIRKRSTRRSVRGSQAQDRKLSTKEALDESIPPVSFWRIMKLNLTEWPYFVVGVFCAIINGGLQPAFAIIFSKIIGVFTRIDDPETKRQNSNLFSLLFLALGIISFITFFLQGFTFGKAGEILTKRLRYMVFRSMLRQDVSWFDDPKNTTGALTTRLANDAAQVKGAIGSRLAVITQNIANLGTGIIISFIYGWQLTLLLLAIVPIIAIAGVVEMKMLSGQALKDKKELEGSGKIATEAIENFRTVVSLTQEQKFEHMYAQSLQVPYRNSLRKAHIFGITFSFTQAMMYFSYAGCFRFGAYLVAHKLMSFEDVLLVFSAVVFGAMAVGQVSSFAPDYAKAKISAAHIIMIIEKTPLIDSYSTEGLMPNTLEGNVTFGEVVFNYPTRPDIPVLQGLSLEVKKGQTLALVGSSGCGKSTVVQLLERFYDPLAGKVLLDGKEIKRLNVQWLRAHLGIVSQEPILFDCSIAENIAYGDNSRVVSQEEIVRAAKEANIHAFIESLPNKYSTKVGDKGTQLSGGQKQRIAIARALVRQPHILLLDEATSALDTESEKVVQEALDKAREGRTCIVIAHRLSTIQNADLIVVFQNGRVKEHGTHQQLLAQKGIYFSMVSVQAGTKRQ
ATP-dependent translocase ABCB1, sequence (P08183 whole entry): as above
Multidrug resistance-associated protein 1, sequence (P33527 whole entry): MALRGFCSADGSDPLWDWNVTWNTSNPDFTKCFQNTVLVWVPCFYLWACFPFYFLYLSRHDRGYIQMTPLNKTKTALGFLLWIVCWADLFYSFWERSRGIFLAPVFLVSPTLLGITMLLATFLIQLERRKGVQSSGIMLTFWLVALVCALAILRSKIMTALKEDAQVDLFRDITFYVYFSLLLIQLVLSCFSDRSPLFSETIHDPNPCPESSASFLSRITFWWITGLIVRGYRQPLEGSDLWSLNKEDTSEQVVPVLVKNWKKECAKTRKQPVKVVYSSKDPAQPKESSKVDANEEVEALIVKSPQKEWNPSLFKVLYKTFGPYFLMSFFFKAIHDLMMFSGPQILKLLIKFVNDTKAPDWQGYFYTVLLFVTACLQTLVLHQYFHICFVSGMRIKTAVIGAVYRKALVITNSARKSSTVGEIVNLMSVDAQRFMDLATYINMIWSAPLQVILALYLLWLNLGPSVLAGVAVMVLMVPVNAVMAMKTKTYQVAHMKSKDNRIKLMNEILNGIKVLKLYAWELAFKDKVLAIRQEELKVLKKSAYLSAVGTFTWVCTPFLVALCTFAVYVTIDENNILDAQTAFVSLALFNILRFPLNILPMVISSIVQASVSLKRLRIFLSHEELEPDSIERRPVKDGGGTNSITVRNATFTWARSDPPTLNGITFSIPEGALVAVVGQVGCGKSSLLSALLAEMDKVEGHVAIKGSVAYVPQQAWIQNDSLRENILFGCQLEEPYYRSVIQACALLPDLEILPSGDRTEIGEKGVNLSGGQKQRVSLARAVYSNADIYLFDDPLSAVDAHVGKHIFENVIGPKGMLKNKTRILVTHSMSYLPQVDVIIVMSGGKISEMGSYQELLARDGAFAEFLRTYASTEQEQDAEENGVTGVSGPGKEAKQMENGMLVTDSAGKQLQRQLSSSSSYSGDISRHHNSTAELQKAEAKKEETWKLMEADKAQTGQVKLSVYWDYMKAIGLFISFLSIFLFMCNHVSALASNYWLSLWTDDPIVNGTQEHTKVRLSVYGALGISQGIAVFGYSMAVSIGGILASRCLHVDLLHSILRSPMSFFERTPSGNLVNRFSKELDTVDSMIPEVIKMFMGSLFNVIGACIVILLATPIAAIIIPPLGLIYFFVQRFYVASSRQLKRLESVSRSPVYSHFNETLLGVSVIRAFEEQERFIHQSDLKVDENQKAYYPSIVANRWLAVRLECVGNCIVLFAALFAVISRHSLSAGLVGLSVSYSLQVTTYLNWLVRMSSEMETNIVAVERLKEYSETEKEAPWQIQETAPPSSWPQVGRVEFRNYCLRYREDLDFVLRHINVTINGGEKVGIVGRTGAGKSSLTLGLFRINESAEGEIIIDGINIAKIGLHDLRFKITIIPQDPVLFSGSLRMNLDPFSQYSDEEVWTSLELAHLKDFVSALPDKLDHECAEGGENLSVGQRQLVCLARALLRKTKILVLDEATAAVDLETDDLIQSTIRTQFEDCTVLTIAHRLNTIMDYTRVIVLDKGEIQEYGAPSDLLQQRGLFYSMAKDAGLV

| Structure (SMILES) | EC50 [1] | EC50 [2] | selectivity ratio (MDR1 (ABCB1, P-gp) [3]) | activity at 2 h, 50 µM (MDR1 (ABCB1, P-gp) [4]) | efflux ratio at 2 h [5] | EC50 [6] |
| --- | --- | --- | --- | --- | --- | --- |
| COc1cc2c(cc1OC)CN(Cc1ccc(Oc3ccc(C(N)=S)cn3)cc1)CC2 | > 100 µM | 11 µM | – | – | – | – |
| COc1cc2c(cc1OC)CN(Cc1ccc(Oc3ccc(-c4nc(-c5cccc(O)c5)cs4)cn3)cc1)CC2 | > 100 µM | 0.25 µM | 10 | 20% | 0.9 | 0.018 µM |
| COc1ccc(-c2ccc(CN3CCc4cc(OC)c(OC)cc4C3)cc2)cc1 | 21 µM | 0.6 µM | – | – | 2.6 | 15 µM |
| COc1cc2c(cc1OC)CN(CC/C=C1\CCCc3c(OC)cccc31)CC2 | – | – | – | – | 1.64 | 90 µM |
| COc1cc2c(cc1OC)CN(CCc1ccc(NC(=O)c3cc(OC)c(OC)cc3NC(=O)c3cnc4ccccc4c3)cc1)CC2 [TARIQUIDAR] | – | – | – | 30% | 22 | – |
| COc1cc2c(cc1OC)CN(Cc1ccc(Oc3ccc(-c4nc(-c5ccc(F)cc5)cs4)cn3)cc1)CC2 | > 100 µM | 0.41 µM | 10 | 18% | 4.5 | 1 µM |
| COc1cc2c(cc1OC)CN(Cc1ccc(Oc3ccc(C(N)=O)cn3)cc1)CC2 | > 100 µM | 19 µM | – | – | – | – |
| COc1cccc(-c2csc(-c3ccc(Oc4ccc(CN5CCc6cc(OC)c(OC)cc6C5)cc4)nc3)n2)c1 | > 100 µM | 0.95 µM | 10 | 20% | 2.5 | 0.5 µM |
| COc1ccc(-c2nc(CN3CCc4cc(OC)c(OC)cc4C3)cs2)cc1 | 2.7 µM | 1.94 µM | – | – | 6.1 | 30 µM |
| COc1cc2c(cc1OC)CN(Cc1ccc(Oc3ccc(-c4nc(-c5ccc([N+](=O)[O-])cc5)cs4)cn3)cc1)CC2 | > 100 µM | 0.51 µM | 10 | 16% | 2.7 | 10 µM |
